# Where two headings read alike, the source gives them in different places.
# Target: T1, EZH2 protein in LS174T cells (Homo sapiens, UniProt Q15910)
# T1 construct: endogenous in cells; host or cells: LS174T
# Experiment: Proteolytic effect in colorectal cancer cells (Western blotting)
# Format: cell-based
# Experimental: After 72 hours of the treatment, the cells were collected and lysed using RIPA buffer (50 mM Tris, pH 7.5, 150 mM NaCl, 1% Triton X-100, 0.1% SDS, […], 0.5% deoxycholate, and protease inhibitor cocktail), followed by sonication (30 sec on/30 sec off, 5 cycles) to prepare a cell lysate.
# [1] = EZH2 protein, LS174T cells, 1 μM, 72 hours
# [2] = EZH2 protein, LS174T cells, 1 uM, 72 hours, Western blotting
# T1 sequence (Q15910 whole entry): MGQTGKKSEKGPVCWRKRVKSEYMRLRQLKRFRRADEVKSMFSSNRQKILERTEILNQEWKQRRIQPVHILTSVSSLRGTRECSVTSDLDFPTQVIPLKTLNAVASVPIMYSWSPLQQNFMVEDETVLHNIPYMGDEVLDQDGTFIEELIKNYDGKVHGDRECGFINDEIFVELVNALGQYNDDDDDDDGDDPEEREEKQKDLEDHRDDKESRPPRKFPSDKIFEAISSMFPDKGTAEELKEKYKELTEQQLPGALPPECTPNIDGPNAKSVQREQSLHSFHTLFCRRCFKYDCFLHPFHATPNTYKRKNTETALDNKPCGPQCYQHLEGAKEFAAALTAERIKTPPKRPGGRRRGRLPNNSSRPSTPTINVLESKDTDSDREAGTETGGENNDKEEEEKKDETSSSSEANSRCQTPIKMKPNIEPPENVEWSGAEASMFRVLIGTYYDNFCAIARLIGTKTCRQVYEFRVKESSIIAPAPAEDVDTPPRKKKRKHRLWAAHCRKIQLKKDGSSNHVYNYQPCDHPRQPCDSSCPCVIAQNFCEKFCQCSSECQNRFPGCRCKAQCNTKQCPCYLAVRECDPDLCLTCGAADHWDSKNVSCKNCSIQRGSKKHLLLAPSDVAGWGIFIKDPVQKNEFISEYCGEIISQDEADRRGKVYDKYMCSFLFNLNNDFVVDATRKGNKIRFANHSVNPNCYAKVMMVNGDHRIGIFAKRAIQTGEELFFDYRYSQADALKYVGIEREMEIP
# T1 sequence (O75530 whole entry partner): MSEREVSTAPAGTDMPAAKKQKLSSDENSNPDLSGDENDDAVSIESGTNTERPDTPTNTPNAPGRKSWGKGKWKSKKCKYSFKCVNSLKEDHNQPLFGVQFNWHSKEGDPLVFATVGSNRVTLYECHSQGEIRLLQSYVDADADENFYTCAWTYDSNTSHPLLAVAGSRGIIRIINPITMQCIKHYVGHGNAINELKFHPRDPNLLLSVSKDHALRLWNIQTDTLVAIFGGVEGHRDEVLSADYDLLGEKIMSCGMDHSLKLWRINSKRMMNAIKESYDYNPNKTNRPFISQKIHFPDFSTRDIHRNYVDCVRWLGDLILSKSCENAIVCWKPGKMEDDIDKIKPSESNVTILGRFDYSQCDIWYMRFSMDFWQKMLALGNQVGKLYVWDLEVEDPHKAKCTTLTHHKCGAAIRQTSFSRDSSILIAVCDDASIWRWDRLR
# T1 sequence (Q15022 whole entry partner): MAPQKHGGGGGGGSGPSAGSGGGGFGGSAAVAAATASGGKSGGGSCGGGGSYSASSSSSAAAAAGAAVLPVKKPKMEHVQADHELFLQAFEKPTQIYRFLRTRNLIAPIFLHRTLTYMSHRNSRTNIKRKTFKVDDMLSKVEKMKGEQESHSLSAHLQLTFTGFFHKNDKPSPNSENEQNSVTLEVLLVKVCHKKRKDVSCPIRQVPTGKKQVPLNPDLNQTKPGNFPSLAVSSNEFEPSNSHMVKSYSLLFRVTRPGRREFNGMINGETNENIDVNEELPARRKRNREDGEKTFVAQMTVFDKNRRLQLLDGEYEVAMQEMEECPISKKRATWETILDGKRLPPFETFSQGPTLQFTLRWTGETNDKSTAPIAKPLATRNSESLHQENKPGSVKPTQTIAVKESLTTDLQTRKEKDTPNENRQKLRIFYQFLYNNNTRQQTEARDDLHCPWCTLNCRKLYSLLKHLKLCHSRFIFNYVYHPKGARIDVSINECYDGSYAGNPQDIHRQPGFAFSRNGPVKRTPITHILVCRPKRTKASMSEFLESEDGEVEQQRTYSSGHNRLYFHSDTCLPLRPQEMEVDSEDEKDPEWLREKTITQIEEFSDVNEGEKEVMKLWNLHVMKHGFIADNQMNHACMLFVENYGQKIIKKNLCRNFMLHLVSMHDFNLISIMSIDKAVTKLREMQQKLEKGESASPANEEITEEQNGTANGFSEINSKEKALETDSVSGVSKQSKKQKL
Grade (percent value of the protein degradation when treated with 1 μM) [1],"%, degradation at 1 uM [2]","EZH2 proteolytic effect by Western blotting (figure, in words) (FIGS. 1 to 5)",effect of degrading EZH2 protein when treated to colorectal cancer cells (in words) (LS174T cells),SMILES,"%, degradation at 1 uM",Grade (percent value of the protein degradation when treated with 1 μM)
C (25-50%),31.67%,–,–,"CCN(c1cc(-c2ccc(CN3CCN(C(=O)c4cn(CCCCCNc5cccc6c5C(=O)N(C5CCC(=O)NC5=O)C6=O)nn4)CC3)cc2)cc(C(=O)NCc2c(C)cc(C)[nH]c2=O)c1C)C1CCOCC1 (stereo not drawn) [Example 32, N-((4,6-dimethyl-2-oxo-1,2-dihydropyridine-3-yl)methyl)-4′-((4-(1-(5-((2-(2,6-dioxopiperidine-3-yl)-1,3-dioxoisoindoline-4-yl)amino)pentyl)-1H-1,2,3-triazole-4-carbonyl)piperazine-1-yl)methyl)-5-(ethyl(tetrahydro-2H-pyran-4-yl)amino)-4-methyl-[1,1′-biphenyl]-3-carboxamide]",–,–
A (>75%),80.85%,confirming the EZH2 proteolytic effect,excellent effects,"CCN(c1cc(-c2ccc(CN3CCN(CC(=O)N4CCC5(CCN(CCCCNc6cccc7c6C(=O)N(C6CCC(=O)NC6=O)C7=O)CC5)CC4)CC3)cc2)cc(C(=O)NCc2c(C)cc(C)[nH]c2=O)c1C)C1CCOCC1 (stereo not drawn) [Example 33, N-((4,6-dimethyl-2-oxo-1,2-dihydropyridine-3-yl)methyl)-4′-((4-(2-(9-(4-((2-(2,6-dioxopiperidine-3-yl)-1,3-dioxoisoindoline-4-yl)amino)butyl)-3,9-diazaspiro[5.5]undecane-3-yl)-2-oxoethyl)piperazine-1-yl)methyl)-5-(ethyl(tetrahydro-2H-pyran-4-yl)amino)-4-methyl-[1,1′-biphenyl]-3-carboxamide]",–,–
D (<25%),0%,–,–,"CCN(c1cc(-c2ccc(CN3CCN(CC(=O)N4CCC5(CCN(CCCCNc6cccc7c6C(=O)N(C6CCC(=O)NC6=O)C7=O)C5)C4)CC3)cc2)cc(C(=O)NCc2c(C)cc(C)[nH]c2=O)c1C)C1CCOCC1 (stereo not drawn) [Example 34, N-((4,6-dimethyl-2-oxo-1,2-dihydropyridine-3-yl)methyl)-4′-((4-(2-(7-(4-((2-(2,6-dioxopiperidine-3-yl)-1,3-dioxoisoindoline-4-yl)amino)butyl)-2,7-diazaspiro[4.4]nonane-2-yl)-2-oxoethyl)piperazine-1-yl)methyl)-5-(ethyl(tetrahydro-2H-pyran-4-yl)amino)-4-methyl-[1,1′-biphenyl]-3-carboxamide]",–,–
D (<25%),0%,–,–,"CCN(c1cc(-c2ccc(CN3CCN(CC(=O)N4CC5(CN(CCCCNc6cccc7c6C(=O)N(C6CCC(=O)NC6=O)C7=O)C5)C4)CC3)cc2)cc(C(=O)NCc2c(C)cc(C)[nH]c2=O)c1C)C1CCOCC1 (stereo not drawn) [Example 35, N-((4,6-dimethyl-2-oxo-1,2-dihydropyridine-3-yl)methyl)-4′-((4-(2-(6-(4-((2-(2,6-dioxopiperidine-3-yl)-1,3-dioxoisoindoline-4-yl)amino)butyl)-2,6-diazaspiro[3.3]heptane-2-yl)-2-oxoethyl)piperazine-1-yl)methyl)-5-(ethyl(tetrahydro-2H-pyran-4-yl)amino)-4-methyl-[1,1′-biphenyl]-3-carboxamide]",–,–
D (<25%),0%,–,–,"CCN(c1cc(-c2ccc(CN3CCN(CC(=O)N4CC5(CN(CCNc6cccc7c6C(=O)N(C6CCC(=O)NC6=O)C7=O)C5)C4)CC3)cc2)cc(C(=O)NCc2c(C)cc(C)[nH]c2=O)c1C)C1CCOCC1 (stereo not drawn) [Example 36, N-((4,6-dimethyl-2-oxo-1,2-dihydropyridine-3-yl)methyl)-4′-((4-(2-(6-(2-((2-(2,6-dioxopiperidine-3-yl)-1,3-dioxoisoindoline-4-yl)amino)ethyl)-2,6-diazaspiro[3.3]heptane-2-yl)-2-oxoethyl)piperazine-1-yl)methyl)-5-(ethyl(tetrahydro-2H-pyran-4-yl)amino)-4-methyl-[1,1′-biphenyl]-3-carboxamide]",–,–
D (<25%),9.97%,–,–,"CCN(c1cc(-c2ccc(CN3CCN(CC(=O)NCCCCCCN[C@H](C(=O)N4C[C@H](O)C[C@H]4C(=O)NCc4ccc(-c5scnc5C)cc4)C(C)(C)C)CC3)cc2)cc(C(=O)NCc2c(C)cc(C)[nH]c2=O)c1C)C1CCOCC1 [Example 38, (2S,4R)-1-((S)-2-((6-(2-(4-((3′-(((4,6-dimethyl-2-oxo-1,2-dihydropyridine-3-yl)methyl)carbamoyl)-5′-(ethyl(tetrahydro-2H-pyran-4-yl)amino)-4′-methyl-[1,1′-biphenyl]-4-yl)methyl)piperazine-1-yl)acetamido)hexyl)amino)-3,3-dimethylbutanoyl)-4-hydroxy-N-(4-(4-methylthiazole-5-yl)benzyl)pyrrolidine-2-carboxamide]",–,–
D (<25%),0%,–,–,"CCN(c1cc(-c2ccc(CN3CCN(CC(=O)NCCCOCCN[C@H](C(=O)N4C[C@H](O)C[C@H]4C(=O)NCc4ccc(-c5scnc5C)cc4)C(C)(C)C)CC3)cc2)cc(C(=O)NCc2c(C)cc(C)[nH]c2=O)c1C)C1CCOCC1 [Example 39, (2S,4R)-1-((S)-2-((2-(3-(2-(4-((3′-(((4,6-dimethyl-2-oxo-1,2-dihydropyridine-3-yl)methyl)carbamoyl)-5′-(ethyl(tetrahydro-2H-pyran-4-yl)amino)-4′-methyl-[1,1′-biphenyl]-4-yl)methyl)piperazine-1-yl)acetamido)propoxy)ethyl)amino)-3,3-dimethylbutanoyl)-4-hydroxy-N-(4-(4-methylthiazole-5-yl)benzyl)pyrrolidine-2-carboxamide]",–,–
D (<25%),0%,–,–,"CCN(c1cc(-c2ccc(CN3CCN(CC(=O)NCCOCCCN[C@H](C(=O)N4C[C@H](O)C[C@H]4C(=O)NCc4ccc(-c5scnc5C)cc4)C(C)(C)C)CC3)cc2)cc(C(=O)NCc2c(C)cc(C)[nH]c2=O)c1C)C1CCOCC1 [Example 40, (2S,4R)-1-((S)-2-((3-(2-(2-(4-((3′-(((4,6-dimethyl-2-oxo-1,2-dihydropyridine-3-yl)methyl)carbamoyl)-5′-(ethyl(tetrahydro-2H-pyran-4-yl)amino)-4′-methyl-[1,1′-biphenyl]-4-yl)methyl)piperazine-1-yl)acetamido)ethoxy)propyl)amino)-3,3-dimethylbutanoyl)-4-hydroxy-N-(4-(4-methylthiazole-5-yl)benzyl)pyrrolidine-2-carboxamide]",–,–
D (<25%),8.36%,–,–,"CCN(c1cc(-c2ccc(CN3CCN(CC(=O)NCCCCCC(=O)N[C@H](C(=O)N4C[C@H](O)C[C@H]4C(=O)NCc4ccc(-c5scnc5C)cc4)C(C)(C)C)CC3)cc2)cc(C(=O)NCc2c(C)cc(C)[nH]c2=O)c1C)C1CCOCC1 [Example 41, (2S,4R)-1-((S)-2-(6-(2-(4-((3′-(((4,6-dimethyl-2-oxo-1,2-dihydropyridine-3-yl)methyl)carbamoyl)-5′-(ethyl(tetrahydro-2H-pyran-4-yl)amino)-4′-methyl-[1,1′-biphenyl]-4-yl)methyl)piperazine-1-yl)acetamido)hexanamido)-3,3-dimethylbutanoyl)-4-hydroxy-N-(4-(4-methylthiazole-5-yl)benzyl)pyrrolidine-2-carboxamide]",–,–
–,–,–,–,"CCN(c1cc(-c2ccc(CN3CCN(CC(=O)NCCCOCCCOCC(=O)N[C@H](C(=O)N4C[C@H](O)C[C@H]4C(=O)NCc4ccc(-c5scnc5C)cc4)C(C)(C)C)CC3)cc2)cc(C(=O)NCc2c(C)cc(C)[nH]c2=O)c1C)C1CCOCC1 [Example 42, (2S,4R)-1-((S)-2-(tert-butyl)-16-(4-((3′-(((4,6-dimethyl-2-oxo-1,2-dihydropyridine-3-yl)methyl)carbamoyl)-5′-(ethyl(tetrahydro-2H-pyran-4-yl)amino)-4′-methyl-[1,1′-biphenyl]-4-yl)methyl)piperazine-1-yl)-4,15-dioxo-6,10-dioxa-3,14-diazahexadecanoyl)-4-hydroxy-N-(4-(4-methylthiazole-5-yl)benzyl)pyrrolidine-2-carboxamide]",0%,D (key: A: >75%; B: 50-75%; C: 25-50%; D: <25%)
B (50-75%),67.12%,–,–,"CCN(c1cc(-c2ccc(CN3CCN(CC(=O)NCCCCCOCCCOCCC(=O)N[C@H](C(=O)N4C[C@H](O)C[C@H]4C(=O)NCc4ccc(-c5scnc5C)cc4)C(C)(C)C)CC3)cc2)cc(C(=O)NCc2c(C)cc(C)[nH]c2=O)c1C)C1CCOCC1 [Example 43, (2S,4R)-1-((S)-2-(tert-butyl)-19-(4-((3′-(((4,6-dimethyl-2-oxo-1,2-dihydropyridine-3-yl)methyl)carbamoyl)-5′-(ethyl(tetrahydro-2H-pyran-4-yl)amino)-4′-methyl-[1,1′-biphenyl]-4-yl)methyl)piperazine-1-yl)-4,18-dioxo-7,11-dioxa-3,17-diazanonadecanoyl)-4-hydroxy-N-(4-(4-methylthiazole-5-yl)benzyl)pyrrolidine-2-carboxamide]",–,–
A (>75%),76.02%,–,excellent effects,"CCN(c1cc(-c2ccc(CN3CCN(CC(=O)N4CCC5(CCN(CCCC(=O)N[C@H](C(=O)N6C[C@H](O)C[C@H]6C(=O)NCc6ccc(-c7scnc7C)cc6)C(C)(C)C)CC5)CC4)CC3)cc2)cc(C(=O)NCc2c(C)cc(C)[nH]c2=O)c1C)C1CCOCC1 [Example 45, (2S,4R)-1-((S)-2-(4-(9-(2-(4-((3′-(((4,6-dimethyl-2-oxo-1,2-dihydropyridine-3-yl)methyl)carbamoyl)-5′-(ethyl(tetrahydro-2H-pyran-4-yl)amino)-4′-methyl-[1,1′-biphenyl]-4-yl)methyl)piperazine-1-yl)acetyl)-3,9-diazaspiro[5.5]undecane-3-yl)butanamido)-3,3-dimethylbutanoyl)-4-hydroxy-N-(4-(4-methylthiazole-5-yl)benzyl)pyrrolidine-2-carboxamide]",–,–
